In US7572800B2, “Combination therapy to treat hepatitis B virus” (Gilead Sciences, Inc., priority 1998, dated 2009):

Legend:
2.2.15 cells = assay: Toxicity analysis by uptake of neutral red dye; conditions: at the concentrations used for the antiviral evaluations
Method: Toxicity analysis were performed in 96-well flat bottomed tissue culture plates. Cells for the toxicity analyses were cultured and treated with test compounds with the same schedule and under identical culture conditions as used for the antiviral evaluations. Each compound was tested at 4 concentrations, each in triplicate cultures. Uptake of neutral red dye was used to determine the relative level of toxicity 24 hours following the last treatment. The absorbance of internalized dye at 510 nM (A510) was used for the quantative analysis. Values are presented as a percentage of the average A510 values (±standard deviations) in 9 separate cultures of untreated cells maintained on the same 96-well plate as the test compounds.

HBV = assay: Antiviral evaluation: extracellular (virion) HBV DNA levels produced by 2.2.15 cells; type: cell-based, hepatitis B virus; conditions: for depression of extracellular (virion) HBV DNA levels: 9 consecutive daily doses
Method: Details of the assay methodology can be found in: Korba and Gerin, Antiviral Res. 19: 55-70 (1992) and Korba, Antiviral Res. 29: 49-52 (1996). The antiviral evaluations were performed on six separate cultures per each of four test concentrations. All wells, in all plates, were seeded at the same density and at the same time.
Due to the inherent variations in the levels of both intracellular and extracellular HBV DNA, only depressions greater than 3.0-fold for HBV virion DNA from the average levels for these HBV DNA forms in untreated cells are generally considered to be statistically significant [P<0.05] (Korba and Gerin, Antiviral Res. 19: 55-70, 1992). Typical values for extracellular HBV virion DNA in untreated cells range from 80 to 150 pg/ml culture medium (average of approximately 92 pg/ml).
For reference, the manner in which the hybridization analyses were performed for these experiments results in an equivalence of approximately 1.0 pg of extracellular HBV DNA/ml culture medium to 3×10^5 viral particles/ml.
For the antiviral test analyses, confluent cultures were maintained on 96-well flat bottomed tissue culture plates. Two separate (replicate) plates were used for each drug treatment. A total of 3 cultures on each plate were treated with each of the dilutions of antiviral agents (6 cultures per dilution). Cultures were treated with 9 consecutive daily doses of the test compounds. Medium was changed daily with fresh test compounds. Only extracellular (virion) HBV DNA levels were followed.

| Compound | toxicity (greater than 50% depression of neutral red dye uptake levels observed in untreated cells) (2.2.15 cells) | anti-HBV activity/potency compared with previous reports or earlier analyses (HBV) | depression of extracellular (virion) HBV DNA levels (HBV) |
| --- | --- | --- | --- |
| Nc1ccn([C@@H]2CS[C@H](CO)O2)c(=O)n1 [3TC, (−)β,L,2′,3′-dideoxy-3′thiacytidine] | No significant toxicity | – | – |
| Nc1nc(N)c2ncn([C@H]3CO[C@@H](CO)O3)c2n1 [DAPD] | – | lower than that observed in earlier analyses | significant and selective depressions |
| Nc1nc2c(ncn2C2COC(CO)O2)c(=O)[nH]1 (stereo not drawn) [DXG] | – | – | significant and selective depressions |
| Nc1nc(=O)n([C@@H]2CS[C@H](CO)O2)cc1F [FTC, β-2-Hydroxymethyl-5-(5-fluorocytosin-1-yl)-1,3-oxathiolane] | No significant toxicity | lower than that observed in earlier analyses | significant and selective depressions |
| Cc1cn([C@H]2O[C@@H](CO)[C@H](O)[C@H]2F)c(=O)[nH]c1=O [L-FMAU, 2′-fluoro-5-methyl-β-L-arabinofuranolyluridine] | – | lower than that observed in earlier analyses | significant and selective depressions |
| Nc1nc2c(ncn2CCC(CO)CO)c(=O)[nH]1 [PCV, 2-amino-1,9-dihydro-9-[4-hydroxy-3-(hydroxymethyl)butyl]-6H-purin-6-one, reference compound] | No significant toxicity | higher than previously reported | significant depressions |
